{"source": "patent US11167054B2", "about": "“Activated disinfectant hydrogen peroxide compositions” (LONZA, LLC, priority 2014, dated 2021)", "origin": "cited, not measured here", "key": {"[1]": {"tested_on": "Pseudomonas Aeruginosa"}, "[2]": {"tested_on": "Staphylococcus Aureus"}, "[3]": {"settings": "6 wt. % hydrogen peroxide solution, 5 minutes contact time"}, "[4]": {"settings": "6000 ppm (0.6 wt. %) hydrogen peroxide solution, 5 minute contact time"}}, "note": "Read-outs that look alike come from different tables or passages of the source."}
{"smiles": "OO", "note": "[hydrogen peroxide]", "values": [{"measurement": "Log reduction against Pseudomonas Aeruginosa", "setting": "[1]; [3]", "result": "< 2", "unit": "Log"}, {"measurement": "Log reduction against Pseudomonas Aeruginosa", "setting": "[1]; [4]", "result": "< 1", "unit": "Log"}, {"measurement": "Log reduction against Staphylococcus Aureus", "setting": "[2]; [3]", "result": "~3", "unit": "Log"}, {"measurement": "log reduction against Staphylococcus Aureus", "setting": "[2]; [4]", "result": "~1", "unit": "log"}]}
